Reference: the NIST ThermoML archive (doi:10.1016/j.fluid.2010.02.010)

Tests used:
[1] = excess molar enthalpy (molar enthalpy of mixing); xn = mol fraction of the nth substance listed; conditions: 101 kPa, Liquid, Flow calorimetry
[2] = activity coefficient (dimensionless); of the first substance listed, at infinite dilution; xn = mol fraction of the nth substance listed; conditions: 101 kPa, Liquid, x1 = 0
[3] = 101.33 kPa, Liquid, Vibrating tube method

CCCCn1cc[n+](C)c1.O=S(=O)([O-])C(F)(F)F [1-butyl-3-methylimidazolium trifluoromethanesulfonate] + C=CCCCC
[1], 413.15 K
Conditions	excess molar enthalpy [kcal/mol]
x2 = 0.0431	0.0234
x2 = 0.0845	0.0443
x2 = 0.1632	0.0602
x2 = 0.2004	0.0576
x2 = 0.2364	0.0555
x2 = 0.3049	0.0508
x2 = 0.3691	0.0468
x2 = 0.4292	0.0423
x2 = 0.5391	0.0335
x2 = 0.637	0.0269
x2 = 0.7247	0.0206
x2 = 0.8404	0.0125
x2 = 0.9405	0.00488

CCCCn1cc[n+](C)c1.O=S(=O)([O-])C(F)(F)F [1-butyl-3-methylimidazolium trifluoromethanesulfonate] + CCCCCC
[1], 413.15 K
Conditions	excess molar enthalpy [kcal/mol]
x2 = 0.0413	0.0571
x2 = 0.1199	0.0756
x2 = 0.1573	0.0722
x2 = 0.1936	0.0687
x2 = 0.2287	0.0655
x2 = 0.2958	0.0595
x2 = 0.359	0.0545
x2 = 0.4186	0.0494
x2 = 0.5283	0.0413
x2 = 0.6269	0.0317
x2 = 0.7159	0.0248
x2 = 0.8344	0.0148
x2 = 0.938	0.00684

CCCCn1cc[n+](C)c1.O=S(=O)([O-])C(F)(F)F [1-butyl-3-methylimidazolium trifluoromethanesulfonate] + CCCCCCC
[1]
Conditions	excess molar enthalpy [kcal/mol]
363.15 K, x2 = 0.02	0.0178
363.15 K, x2 = 0.0501	0.0321
363.15 K, x2 = 0.1001	0.0421
363.15 K, x2 = 0.1502	0.0435
363.15 K, x2 = 0.2002	0.0418
363.15 K, x2 = 0.3003	0.037
363.15 K, x2 = 0.4003	0.0312
363.15 K, x2 = 0.5003	0.0263
363.15 K, x2 = 0.6003	0.0207
363.15 K, x2 = 0.7003	0.0152
363.15 K, x2 = 0.8002	0.00987
363.15 K, x2 = 0.9001	0.00492
413.15 K, x2 = 0.0371	0.073
413.15 K, x2 = 0.1085	0.0833
413.15 K, x2 = 0.143	0.0831
413.15 K, x2 = 0.1766	0.0805
413.15 K, x2 = 0.2094	0.0775
413.15 K, x2 = 0.2729	0.0713
413.15 K, x2 = 0.3335	0.0655
413.15 K, x2 = 0.3915	0.0611
413.15 K, x2 = 0.5002	0.0505
413.15 K, x2 = 0.6002	0.0409
413.15 K, x2 = 0.6925	0.0319
413.15 K, x2 = 0.8183	0.0198
413.15 K, x2 = 0.9311	0.0076

C=CCCCCC [1-heptene] + CCCCCCCCn1cc[n+](C)c1.O=S(=O)([O-])C(F)(F)F
[2], dilutor technique
Conditions	activity coefficient
303.21 K	6.11
313.15 K	6.03
323.14 K	5.97
333.12 K	5.89

C=CCCCCC [1-heptene] + CCCCCCn1cc[n+](C)c1.O=S(=O)([O-])C(F)(F)F
activity coefficient, [2]
Conditions	303.14 K	303.16 K	313.15 K	313.17 K	323.15 K	333.14 K	333.18 K
Chromatography	11.2	–	10.8	–	10.6	10.4	–
dilutor technique	–	11	–	10.6	10.4	–	10.1

C=CCCCCC [1-heptene] + CCCCn1cc[n+](C)c1.O=S(=O)([O-])C(F)(F)F
activity coefficient, [2]
Conditions	303.17 K	303.45 K	313.13 K	313.15 K	323.14 K	323.16 K	333.15 K	333.16 K
Chromatography	–	21.8	–	21.3	20.6	–	19.9	–
Dilutor technique	22.1	–	21.2	–	–	20.2	–	19.7

CCCCCCn1cc[n+](C)c1.O=S(=O)([O-])C(F)(F)F [1-hexyl-3-methylimidazolium trifluoromethanesulfonate]
[3]
Conditions	mass density [kg/m3]
308.16 K	1231.4
313.16 K	1227.6
318.16 K	1223.8
323.16 K	1220
328.16 K	1216.2
333.16 K	1212.5
338.16 K	1208.7
343.16 K	1205
348.15 K	1201.3

CCCCCCn1cc[n+](C)c1.O=S(=O)([O-])C(F)(F)F [1-hexyl-3-methylimidazolium trifluoromethanesulfonate] + C=CCCCC
[1], 413.15 K
Conditions	excess molar enthalpy [kcal/mol]
x2 = 0.0407	0.00805
x2 = 0.0604	0.0117
x2 = 0.0797	0.0159
x2 = 0.0987	0.0205
x2 = 0.1172	0.0245
x2 = 0.1353	0.0282

CCCCCCCCn1cc[n+](C)c1.O=S(=O)([O-])C(F)(F)F [1-octyl-3-methylimidazolium trifluoromethanesulfonate]
[3]
Conditions	mass density [kg/m3]
293.15 K	1197
298.15 K	1193.2
303.15 K	1189.5
308.14 K	1185.8
313.15 K	1182.1
318.15 K	1178.4
323.14 K	1174.7
328.14 K	1171.1
333.14 K	1167.4
338.14 K	1163.7
343.15 K	1160.1
348.15 K	1156.5
353.14 K	1152.9

C=CCCC [1-pentene] + CCCCCCn1cc[n+](C)c1.O=S(=O)([O-])C(F)(F)F
[2], dilutor technique
Conditions	activity coefficient
303.18 K	4.62
313.15 K	4.58
323.16 K	4.54
333.15 K	4.51

C=CCCC [1-pentene] + CCCCn1cc[n+](C)c1.O=S(=O)([O-])C(F)(F)F
activity coefficient, [2]
Conditions	303.45 K	313.15 K	323.15 K	333.15 K	333.18 K
Chromatography	10.1	9.69	9.48	9.18	–
Dilutor technique	–	9.55	9.34	–	9.06

CCCCCCC [heptane] + CCCCCCCCn1cc[n+](C)c1.O=S(=O)([O-])C(F)(F)F
[2], dilutor technique
Conditions	activity coefficient
303.16 K	9.59
313.14 K	9.42
323.14 K	9.26
333.11 K	9.06

CCCCCCC [heptane] + CCCCCCn1cc[n+](C)c1.O=S(=O)([O-])C(F)(F)F
[2], dilutor technique
Conditions	activity coefficient
303.16 K	19.2
313.18 K	18
323.16 K	17.4
333.14 K	16.6

CCCCCCC [heptane] + CCCCn1cc[n+](C)c1.O=S(=O)([O-])C(F)(F)F
activity coefficient, [2]
Conditions	303.12 K	303.45 K	313.15 K	323.12 K	323.14 K	333.15 K	333.21 K
Chromatography	–	45	42.4	–	39.8	37	–
Dilutor technique	45	–	42.3	39.8	–	–	36.9

C=CCCCC [hex-1-ene] + CCCCCCCCn1cc[n+](C)c1.O=S(=O)([O-])C(F)(F)F
[2], dilutor technique
Conditions	activity coefficient
303.13 K	4.68
313.13 K	4.61
323.16 K	4.57
333.16 K	4.53

C=CCCCC [hex-1-ene] + CCCCCCn1cc[n+](C)c1.O=S(=O)([O-])C(F)(F)F
[2], dilutor technique
Conditions	activity coefficient
303.18 K	7.4
313.15 K	7.23
323.16 K	7.03
333.15 K	6.86

C=CCCCC [hex-1-ene] + CCCCn1cc[n+](C)c1.O=S(=O)([O-])C(F)(F)F
activity coefficient, [2]
Conditions	303.17 K	303.45 K	313.15 K	313.36 K	323.14 K	323.15 K	333.14 K	333.18 K
Chromatography	–	14.4	–	14	13.5	–	13	–
Dilutor technique	14.3	–	13.8	–	–	13.5	–	12.9

CCCCCC [hexane] + CCCCCCCCn1cc[n+](C)c1.O=S(=O)([O-])C(F)(F)F
[2], dilutor technique
Conditions	activity coefficient
303.15 K	7.25
323.16 K	7.15
333.18 K	7.09

CCCCCC [hexane] + CCCCCCn1cc[n+](C)c1.O=S(=O)([O-])C(F)(F)F
[2], dilutor technique
Conditions	activity coefficient
303.11 K	12.8
313.16 K	11.9
323.17 K	11.4
333.17 K	10.9

CCCCCC [hexane] + CCCCn1cc[n+](C)c1.O=S(=O)([O-])C(F)(F)F
activity coefficient, [2]
Conditions	303.16 K	303.45 K	313.15 K	313.19 K	323.14 K	323.16 K	333.15 K	333.22 K
Chromatography	–	29.8	28.4	–	26.5	–	24.8	–
Dilutor technique	29	–	–	27.7	–	25.9	–	24.5

C=CCCCCCC [oct-1-ene] + CCCCCCCCn1cc[n+](C)c1.O=S(=O)([O-])C(F)(F)F
[2], dilutor technique
Conditions	activity coefficient
303.21 K	8
313.15 K	7.86
323.14 K	7.79
333.12 K	7.66

C=CCCCCCC [oct-1-ene] + CCCCCCn1cc[n+](C)c1.O=S(=O)([O-])C(F)(F)F
activity coefficient, [2]
Conditions	303.14 K	303.16 K	313.15 K	313.17 K	323.15 K	333.14 K	333.18 K
Chromatography	15.4	–	15	–	14.6	14.3	–
dilutor technique	–	15	–	14.5	14.2	–	13.7

C=CCCCCCC [oct-1-ene] + CCCCn1cc[n+](C)c1.O=S(=O)([O-])C(F)(F)F
activity coefficient, [2]
Conditions	303.17 K	303.45 K	313.13 K	313.15 K	323.14 K	323.16 K	333.15 K	333.16 K
Chromatography	–	33.7	–	32	30.6	–	29.3	–
Dilutor technique	33.3	–	31.5	–	–	29.9	–	29

CCCCCCCC [octane] + CCCCCCCCn1cc[n+](C)c1.O=S(=O)([O-])C(F)(F)F
[2], dilutor technique
Conditions	activity coefficient
303.16 K	12.6
313.14 K	12.2
323.14 K	12
333.11 K	11.7

CCCCCCCC [octane] + CCCCCCn1cc[n+](C)c1.O=S(=O)([O-])C(F)(F)F
activity coefficient, [2]
Conditions	303.14 K	303.16 K	313.15 K	313.18 K	323.15 K	323.16 K	333.14 K
Chromatography	27.2	–	25.8	–	24.8	–	23.8
dilutor technique	–	27.1	–	25.5	–	24.6	23.4

CCCCCCCC [octane] + CCCCn1cc[n+](C)c1.O=S(=O)([O-])C(F)(F)F
activity coefficient, [2]
Conditions	303.12 K	303.15 K	313.15 K	313.36 K	323.12 K	323.15 K	333.15 K	333.21 K
Chromatography	–	71.2	–	65.5	–	60.3	55.2	–
Dilutor technique	70.3	–	65.6	–	60.1	–	–	55.7

CCCCC [pentane] + CCCCn1cc[n+](C)c1.O=S(=O)([O-])C(F)(F)F
[2], Dilutor technique
Conditions	activity coefficient
313.19 K	18
323.16 K	17.5
333.22 K	16.8
